How the values were obtained:
Test in all cases: Brain gene expression (TLDA qPCR)
Type in all cases: in vivo, rat
Details in all cases: 15 wk diet; control diet = 1
15-lipoxygenase = system: 15-lipoxygenase
Description: (§1) RNA was extracted from the flash-frozen half brains of the 15 week postweaning rats. The brain was briefly thawed and dissected to isolate the brainstem, cerebellum, cortex, hippocampus, striatum, and the rest of the brain. RNA was extracted from the brain regions using Trizol reagent (Ambion; Life Technologies, Burlington, ON, Canada) according to the manufacturer's protocol. […] Chloroform was added to the Trizol reagent at a ratio of 1:5 (chloroform:Trizol reagent) and the solution was mixed and incubated at room temperature. The solution was then centrifuged at 12,000 g for 15 min at 4°C. […] The samples were then centrifuged at 12,000 g for 10 min at 4°C to precipitate the RNA pellet. […] The pellet was allowed to air dry, and was then dissolved in RNase-free water. A Nanodrop 1000 (NanoDrop Technologies Inc., Wilmington, DE) was used to determine the concentration and purity of each sample by measuring absorbance at 260 and 280 nm. Each sample was aliquoted to make 1 μg of RNA per 10 μl of sample and stored at -80°C. A high-capacity cDNA reverse transcription kit (Applied Biosystems, Burlington, ON, Canada) was used to reverse transcribe 1 μg of RNA according to the manufacturer's instructions. Newly synthesized cDNA was stored at -20°C until the following day when it was loaded onto TaqMan low density array (TLDA) plates. Quantitative real-time PCR was performed using TLDA (Applied Biosystems) on the 7900HT real-time PCR system (Applied Biosystems). cDNA (50 ng) was diluted with water to make a volume of 50 μl and mixed with 50 μl of TaqMan Universal PCR Master Mix (Applied Biosystems). The mixture was then loaded onto a customized preconfigured 384-well TLDA plate according to the manufacturer's protocol. TaqMan gene expression assays were used to assess 21 genes that were previously reported to be differentially expressed with n-3 deprivation. […] All genes were normalized to phosphoglycerate kinase 1. Similar results were found when normalizing to β-actin or 18S rRNA.

β-actin = system: β-actin
Description: as §1

transthyretin = system: transthyretin
Description: as §1

α-synuclein = system: α-synuclein
Description: as §1

COX-2 = system: COX-2
Description: as §1

tyrosine hydroxylase = system: tyrosine hydroxylase
Description: as §1

group 4 cPLA2 = system: group 4 cPLA2
Description: as §1

group 2a sPLA2 = system: group 2a sPLA2
Description: as §1

dopamine receptor D2 = system: dopamine receptor D2
Description: as §1

[1] = system: epidermal growth factor receptor
Description: as §1

[2] = system: brain-derived neurotrophic factor
Description: as §1

[3] = system: vesicular monoamine transporter 2
Description: as §1

group 6 iPLA2 = system: group 6 iPLA2
Description: as §1

heme oxygenase 1 = system: heme oxygenase 1
Description: as §1

PPARg = system: PPARg
Description: as §1

retnoid X receptor β = system: retnoid X receptor β
Description: as §1

TNF-α receptor member 1a = system: TNF-α receptor member 1a
Description: as §1

## CC/C=C\C/C=C\C/C=C\C/C=C\C/C=C\C/C=C\CCC(=O)O [DHA, Docosahexaenoic acid]
15-lipoxygenase
  Brainstem gene expression: 15 LOX: 1.68 RQ
  Cerebellum gene expression: 15 LOX: 1.35 RQ
  Cortex gene expression: 15 LOX: 1.04 RQ
  Hippocampus gene expression: 15 LOX: 0.96 RQ
  Rest of brain gene expression: 15 LOX: 1.07 RQ
  Striatum gene expression: 15 LOX: 1.46 RQ
β-actin
  Brainstem gene expression: b-actin: 1.10 RQ
  Cerebellum gene expression: b actin: 0.98 RQ
  Cortex gene expression: b actin: 1.05 RQ
  Hippocampus gene expression: B-actin: 1.12 RQ
  Rest of brain gene expression: b actin: 1.08 RQ
  Striatum gene expression: b actin: 0.92 RQ
transthyretin
  Brainstem gene expression: TTR: 0.46 RQ
  Cerebellum gene expression: TTR: 0.72 RQ
  Cortex gene expression: TTR: 1.49 RQ
  Hippocampus gene expression: TTR: 2.40 RQ
  Rest of brain gene expression: TTR: 1.08 RQ
  Striatum gene expression: TTR: 0.66 RQ
α-synuclein
  Brainstem gene expression: SNCa: 2.25 RQ
  Cerebellum gene expression: SNCa: 0.84 RQ
  Cortex gene expression: SNCa: 1.15 RQ
  Hippocampus gene expression: SNCa: 1.19 RQ
  Rest of brain gene expression: SNCa: 1.09 RQ
  Striatum gene expression: SNCa: 0.97 RQ
COX-2
  Brainstem gene expression: COX 2: 3.34 RQ
  Cerebellum gene expression: COX 2: 1.41 RQ
  Cortex gene expression: COX 2: 1.29 RQ
  Hippocampus gene expression: COX 2: 1.12 RQ
  Rest of brain gene expression: COX 2: 1.21 RQ
  Striatum gene expression: COX 2: 0.75 RQ
Tyrosine hydroxylase
  Brainstem gene expression: TH: 0.98 RQ
  Cerebellum gene expression: TH: 1.23 RQ
  Cortex gene expression: TH: 1.11 RQ
  Hippocampus gene expression: TH: 1.01 RQ
  Rest of brain gene expression: TH: 1.18 RQ
  Striatum gene expression: TH: 1.19 RQ
Group 4 cPLA2
  Brainstem gene expression: cPLA2: 6.22 RQ
  Cerebellum gene expression: cPLA2: 0.98 RQ
  Cortex gene expression: cPLA2: 1.11 RQ
  Hippocampus gene expression: cPLA2: 0.98 RQ
  Rest of brain gene expression: cPLA2: 0.99 RQ
  Striatum gene expression: cPLA2: 0.92 RQ
Group 2a sPLA2
  Brainstem gene expression: sPLA2: 1.10 RQ
  Cerebellum gene expression: sPLA2: 0.98 RQ
  Cortex gene expression: spla2: 1.17 RQ
  Hippocampus gene expression: sPLA2: 0.93 RQ
  Rest of brain gene expression: sPLA2: 1.17 RQ
  Striatum gene expression: sPLA2: 0.68 RQ
Dopamine receptor D2
  Brainstem gene expression: DR D2: 0.88 RQ
  Cerebellum gene expression: DR D2: 1.09 RQ
  Cortex gene expression: DR D2: 1.12 RQ
  Hippocampus gene expression: DR D2: 0.95 RQ
  Rest of brain gene expression: DR D2: 1.05 RQ
  Striatum gene expression: DR D2: 0.98 RQ
[1]
  Brainstem gene expression: EGFR: 1.14 RQ
  Cerebellum gene expression: EGFR: 0.96 RQ
  Cortex gene expression: EGFR: 0.99 RQ
  Hippocampus gene expression: EGFR: 1.04 RQ
  Rest of brain gene expression: EGFR: 1.08 RQ
  Striatum gene expression: EGFR: 0.82 RQ
[2]
  Brainstem gene expression: BDNF: 1.19 RQ
  Cerebellum gene expression: BDNF: 0.88 RQ
  Cortex gene expression: BDNF: 1.16 RQ
  Hippocampus gene expression: BDNF: 1.13 RQ
  Rest of brain gene expression: BDNF: 0.99 RQ
  Striatum gene expression: BDNF: 2.10 RQ
[3]
  Brainstem gene expression: VMAT2: 9.94 RQ
  Hippocampus gene expression: VMAT 2: 1.26 RQ
  Rest of brain gene expression: VMAT2: 1.08 RQ
Group 6 iPLA2
  Brainstem gene expression: iPLA2: 1.10 RQ
  Cerebellum gene expression: iPLA2: 1.00 RQ
  Cortex gene expression: iPLA2: 1.09 RQ
  Hippocampus gene expression: iPLA2: 1.05 RQ
  Rest of brain gene expression: iPLA2: 1.10 RQ
  Striatum gene expression: iPLA2: 0.90 RQ
Heme oxygenase 1
  Brainstem gene expression: HO1: 0.99 RQ
  Cerebellum gene expression: HO1: 0.99 RQ
  Cortex gene expression: HO1: 1.11 RQ
  Hippocampus gene expression: HO1: 1.03 RQ
  Rest of brain gene expression: HO1: 1.04 RQ
  Striatum gene expression: HO1: 0.94 RQ
PPARg
  Brainstem gene expression: PPARg: 1.11 RQ
  Cerebellum gene expression: PPARg: 1.07 RQ
  Cortex gene expression: PPARg: 1.36 RQ
  Hippocampus gene expression: PPARγ: 0.47 RQ
  Rest of brain gene expression: PPARg: 1.14 RQ
  Striatum gene expression: PPARg: 0.83 RQ
Retnoid X receptor β
  Brainstem gene expression: RXRb: 1.29 RQ
  Cerebellum gene expression: RXRb: 0.96 RQ
  Cortex gene expression: RXR b: 1.05 RQ
  Hippocampus gene expression: RXR b: 1.07 RQ
  Rest of brain gene expression: RXR b: 1.12 RQ
  Striatum gene expression: RXRb: 1.02 RQ
TNF-α receptor member 1a
  Brainstem gene expression: TNFaR1a: 1.21 RQ
  Cerebellum gene expression: TNFaR1a: 0.96 RQ
  Cortex gene expression: TNFaR1a: 1.10 RQ
  Hippocampus gene expression: TNFa R 1a: 0.99 RQ
  Rest of brain gene expression: TNFaR1a: 1.06 RQ
  Striatum gene expression: TNFaR1a: 0.88 RQ
